According to paper PMC11966747, “Next Generation Risk Assessment of Acute Neurotoxicity from Organophosphate Exposures Using the In Vitro–In Silico Derived Dietary Comparator Ratio” (Environmental Science & Technology, 2025):
Read-outs that look alike come from different tables or passages of the source.

Tests used:
erythrocyte AChE [1] = target: T1, erythrocyte AChE (Homo sapiens, UniProt P22303); settings: cited from earlier work; for reported or expected adverse health outcome: ref Table S2
[2] = QSAR-based prediction; ref Punt et al. 2022; Moerenhout et al. 2024; cited from earlier work
erythrocyte AChE [3] = target: T1, erythrocyte AChE; assay: Exposure Activity Ratio (EAR) and Dietary Comparator Ratio (DCR) calculation; design: from tissue; host or cells: human whole peripheral blood (erythrocytes), K2EDTA anticoagulant; settings: for calculated DCR value / calculated EARtest value: human
Description: The DCR value for an exposure scenario was calculated as the ratio of EARtest and EARcomparator (eq 1). The EARtest is scenario-specific and was defined with the IC50 of the tested organophosphate oxon for in vitro erythrocyte AChE inhibition and the PBK model-simulated CBmaxoxon at the defined exposure level (eq 2).
The DCR-based predictions were evaluated by comparing the obtained DCR results with actual knowledge of the adverse health effects reported for the respective exposure scenarios. Adverse effects cannot be ruled out for human exposure scenarios with a DCR result greater than 1, while exposure scenarios with a DCR result less than or equal to 1 are considered to raise no safety concern.[18]−[20] Once validated as an adequate predicting tool, the DCR approach was applied for evaluating the safety of exposure scenarios, for which no information on the resulting toxic outcomes was reported at the defined dose levels for humans.

erythrocyte AChE [4] = target: T1, erythrocyte AChE; design: from tissue; host or cells: human whole peripheral blood (erythrocytes), K2EDTA anticoagulant; method as in PMID 38008925; settings: human blood; read-out: IC50, erythrocyte AChE inhibition; cited from earlier work
erythrocyte AChE [5] = target: T1, erythrocyte AChE; assay: biochemical; assay type: biochemical; design: from tissue; host or cells: human whole peripheral blood (erythrocytes), K2EDTA anticoagulant
Description: Ethanol (UPLC/MS grade) was ordered from Biosolve (Valkenswaard, The Netherlands). Ultrapure water used for experiments was prepared with a Sartorius Arium Pro ultrapure water system (Göttingen, Germany). Human whole peripheral blood with K2EDTA as an anticoagulant was used for the in vitro AChE inhibition assay. K2EDTA acts as an inhibitor to the paraoxonase 1 (PON1) enzyme,[23] preventing the underestimation of the inhibition potential of organophosphate oxons due to the nontarget clearance by PON1 present in the blood samples.
Inhibition of erythrocyte AChE by the organophosphate oxon or the corresponding oxon metabolite of an organothiophosphate was measured in vitro using the method previously described.[12] The ethanolic stock solution of the test oxon was first diluted 100 times with sodium phosphate buffer (100 mM, pH 7.4), and 10 μL of the diluted solution was added to 90 μL of human whole blood sample in a 48-wells flat-bottom transparent plate (Greiner Bio-One, The Netherlands). After a 30 min incubation at room temperature, the blood samples were then diluted 20 times with ultrapure water containing 0.03% Triton-X 100 (v/v), and 20 μL of the Triton-diluted blood was incubated for 20 min following the addition of 460 μL of DTNB and 20 μL of ethopropazine (an inhibitor to plasma butyrylcholinesterase (BuChE)). After that, 100 μL of ATC was added (final concentrations of ethopropazine, DTNB, and ATC were 20 μM, 1 mM, and 1 mM, respectively), and the absorbance at 436 nm was measured continuously to detect the remaining AChE activity. Controls were carried out by replacing the test compound with sodium phosphate buffer to correct for any background absorbance.
The benchmark response (BMR) of 5% for erythrocyte AChE inhibition is a conservative end point for deriving an effect level, since regulatory bodies usually use a higher BMR (i.e., 10% or 20%) for risk assessment of acute OP pesticide exposure.[24],[25] The European Food Safety Authority (EFSA) Web tool (https://efsa.openanalytics.eu/) integrated with the R package PROAST (version 70.0) was employed for the BMC analysis (see Supporting Information).

[6] = human whole blood, BMC analysis, PROAST model averaging
[7] = 1 mg/kg BW single oral, a volunteer, ref APVMA. 2000 (original data of Brown. 1966)

T1 sequence (P22303 32-617 isoform P22303-2 limits assumed): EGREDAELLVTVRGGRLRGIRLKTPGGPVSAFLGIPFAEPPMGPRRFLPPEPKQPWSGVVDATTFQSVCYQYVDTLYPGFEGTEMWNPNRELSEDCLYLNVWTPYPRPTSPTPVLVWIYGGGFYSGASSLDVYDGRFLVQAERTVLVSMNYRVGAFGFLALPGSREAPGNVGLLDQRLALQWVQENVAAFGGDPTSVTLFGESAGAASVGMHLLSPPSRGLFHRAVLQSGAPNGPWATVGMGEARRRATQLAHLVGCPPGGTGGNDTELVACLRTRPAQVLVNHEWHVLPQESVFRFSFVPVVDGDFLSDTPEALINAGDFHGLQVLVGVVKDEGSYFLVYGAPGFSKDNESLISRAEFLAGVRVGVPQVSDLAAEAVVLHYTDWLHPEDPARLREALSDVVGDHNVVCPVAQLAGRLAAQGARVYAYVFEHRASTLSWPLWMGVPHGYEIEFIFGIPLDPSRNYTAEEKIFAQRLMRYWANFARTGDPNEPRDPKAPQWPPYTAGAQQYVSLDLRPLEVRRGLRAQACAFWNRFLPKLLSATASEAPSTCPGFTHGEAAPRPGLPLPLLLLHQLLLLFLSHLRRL

## COP(=S)(OC)Oc1ccc([N+](=O)[O-])cc1 [methyl parathion]
Erythrocyte AChE [1]; 286 mg/kg BW (20 g) acute oral, person, ref Luzhnikov et al. 1977
  reported blood concentration: 3 mg/L
Erythrocyte AChE [1]; human, single oral 0.003 mg/kg BW, 0.003 mg/kg
  reported or expected adverse health outcome: negative
Erythrocyte AChE [1]; human, single oral 0.003 mg/kg BW, listed as Methyl parathion, 0.003 mg/kg
  reported or expected adverse health outcome: No
Erythrocyte AChE [1]; human, single oral 0.029 mg/kg BW, 0.029 mg/kg
  reported or expected adverse health outcome: negative
Erythrocyte AChE [1]; human, single oral 0.029 mg/kg BW, listed as Methyl parathion, 0.029 mg/kg
  reported or expected adverse health outcome: No
Erythrocyte AChE [1]; human, single oral 0.057 mg/kg BW, 0.057 mg/kg
  reported or expected adverse health outcome: negative
Erythrocyte AChE [1]; human, single oral 0.057 mg/kg BW, listed as Methyl parathion, 0.057 mg/kg
  reported or expected adverse health outcome: No
Erythrocyte AChE [1]; human, single oral 0.30 mg/kg BW, 0.3 mg/kg
  reported or expected adverse health outcome: negative
Erythrocyte AChE [1]; human, single oral 0.30 mg/kg BW, listed as Methyl parathion, 0.3 mg/kg
  reported or expected adverse health outcome: No
Erythrocyte AChE [1]; human, single oral 26 mg/kg BW, 26 mg/kg
  reported or expected adverse health outcome: positive
Erythrocyte AChE [1]; human, single oral 26 mg/kg BW, listed as Methyl parathion, 26 mg/kg
  reported or expected adverse health outcome: Yes
[2]
  Oral absorption rate constant: 0.58 h⁻¹
Erythrocyte AChE [3]; single oral 0.003 mg/kg BW
  calculated DCR value: 0.092
  calculated EARtest value: 3.6 × 10^–3
Erythrocyte AChE [3]; single oral 0.029 mg/kg BW
  calculated DCR value: 0.89
  calculated EARtest value: 0.035
Erythrocyte AChE [3]; single oral 0.057 mg/kg BW
  calculated DCR value: 1.8
  calculated EARtest value: 0.069
Erythrocyte AChE [3]; single oral 0.30 mg/kg BW
  calculated DCR value: 9.2
  calculated EARtest value: 0.36
Erythrocyte AChE [3]; single oral 26 mg/kg BW
  calculated DCR value: 927
  calculated EARtest value: 36.59

## COP(=O)(OC)Oc1ccc([N+](=O)[O-])c(C)c1 [fenitrooxon]
Erythrocyte AChE [4]
  IC50: 0.84 µM

## CCOP(=O)(OCC)Oc1nc(Cl)c(Cl)cc1Cl [chlorpyrifos oxon]
Erythrocyte AChE [5]; [6]
  BMCL05 (lower 95% confidence limit of benchmark concentration for 5% erythrocyte AChE inhibition): 0.015 µM
  BMCU05 (upper 95% confidence limit of benchmark concentration for 5% erythrocyte AChE inhibition): 0.10 µM
Erythrocyte AChE [3]; BMCL05/IC50 of chlorpyrifos oxon
  EARcomparator: 0.039

## CCCSP(=O)(OCC)Oc1ccc(Br)cc1Cl (stereo not shown) [profenofos]
Erythrocyte AChE [1]; 1600 mg/kg BW (112 g) acute oral, person, ref Seno et al. 1998
  Reported concomitant effects (signs and symptoms): Died
Erythrocyte AChE [1]; human, single oral 1600 mg/kg BW, 1600 mg/kg
  reported or expected adverse health outcome: positive
Erythrocyte AChE [1]; human, single oral 1600 mg/kg BW, listed as Profenofos, 1600 mg/kg
  reported or expected adverse health outcome: Yes
[2]
  Oral absorption rate constant: 0.90 h⁻¹
Erythrocyte AChE [5]
  IC50: 94.5 µM
Erythrocyte AChE [3]; single oral 1600 mg/kg BW
  calculated DCR value: 272
  calculated EARtest value: 10.75

## CCOP(=O)(OCC)Oc1cc(C)nc(C(C)C)n1 [diazoxon]
Erythrocyte AChE [5]
  IC50: 1.82 µM

## CCOP(=S)(OCC)Oc1nc(Cl)c(Cl)cc1Cl [chlorpyrifos]
Erythrocyte AChE [1]; human volunteers, fasted overnight, single oral dose
  no-observed-adverse-effect level (NOAEL) for toxic signs and symptoms: 2 mg/kg BW
Erythrocyte AChE [1]; human, in vivo, po, 2 mg/kg
  inhibition of erythrocyte AChE: 28%
Erythrocyte AChE [1]; human, in vivo
  Erythrocyte AChE inhibition: 28%
Erythrocyte AChE [1]; human, single oral 0.01 mg/kg BW, 0.01 mg/kg
  reported or expected adverse health outcome: negative
Erythrocyte AChE [1]; human, single oral 0.01 mg/kg BW, listed as Chlorpyrifos, 0.01 mg/kg
  reported or expected adverse health outcome: No
Erythrocyte AChE [1]; human, single oral 0.012 mg/kg BW, 0.012 mg/kg
  reported or expected adverse health outcome: negative
Erythrocyte AChE [1]; human, single oral 0.012 mg/kg BW, listed as Chlorpyrifos, 0.012 mg/kg
  reported or expected adverse health outcome: No
Erythrocyte AChE [1]; human, single oral 0.03 mg/kg BW, 0.03 mg/kg
  reported or expected adverse health outcome: negative
Erythrocyte AChE [1]; human, single oral 0.03 mg/kg BW, listed as Chlorpyrifos, 0.03 mg/kg
  reported or expected adverse health outcome: No
Erythrocyte AChE [1]; human, single oral 0.1 mg/kg BW, 0.1 mg/kg
  reported or expected adverse health outcome: negative
Erythrocyte AChE [1]; human, single oral 0.1 mg/kg BW, listed as Chlorpyrifos, 0.1 mg/kg
  reported or expected adverse health outcome: No
Erythrocyte AChE [1]; human, single oral 0.5 mg/kg BW, 0.5 mg/kg
  reported or expected adverse health outcome: negative
Erythrocyte AChE [1]; human, single oral 0.5 mg/kg BW, listed as Chlorpyrifos, 0.5 mg/kg
  reported or expected adverse health outcome: No
Erythrocyte AChE [1]; human, single oral 1 mg/kg BW, 1 mg/kg
  reported or expected adverse health outcome: negative
Erythrocyte AChE [1]; human, single oral 1 mg/kg BW, listed as Chlorpyrifos, 1 mg/kg
  reported or expected adverse health outcome: No
Erythrocyte AChE [1]; human, single oral 2 mg/kg BW, listed as Chlorpyrifos, 2 mg/kg
  reported or expected adverse health outcome: No
Erythrocyte AChE [1]; human, single oral 214 mg/kg BW, 214 mg/kg
  reported or expected adverse health outcome: positive
Erythrocyte AChE [1]; human, single oral 214 mg/kg BW, listed as Chlorpyrifos, 214 mg/kg
  reported or expected adverse health outcome: Yes
Erythrocyte AChE [1]; human, single oral 300 mg/kg BW, 300 mg/kg
  reported or expected adverse health outcome: positive
Erythrocyte AChE [1]; human, single oral 300 mg/kg BW, listed as Chlorpyrifos, 300 mg/kg
  reported or expected adverse health outcome: Yes
[2]
  Oral absorption rate constant: 1.01 h⁻¹
Erythrocyte AChE [3]; single oral 0.01 mg/kg BW
  calculated DCR value: 4.6 × 10^–3
  calculated EARtest value: 1.8 × 10^–4
Erythrocyte AChE [3]; single oral 0.012 mg/kg BW
  calculated EARtest value: 2.2 × 10^–4
Erythrocyte AChE [3]; single oral 0.03 mg/kg BW
  calculated DCR value: 0.014
  calculated EARtest value: 5.4 × 10^–4
Erythrocyte AChE [3]; single oral 0.1 mg/kg BW
  calculated DCR value: 0.046
  calculated EARtest value: 1.8 × 10^–3
Erythrocyte AChE [3]; single oral 0.5 mg/kg BW
  calculated DCR value: 0.23
  calculated EARtest value: 9.2 × 10^–3
Erythrocyte AChE [3]; single oral 1 mg/kg BW
  calculated DCR value: 0.48
  calculated EARtest value: 0.019
Erythrocyte AChE [3]; single oral 2 mg/kg BW
  calculated DCR value: 1.0
  calculated EARtest value: 0.040
Erythrocyte AChE [3]; single oral 214 mg/kg BW
  calculated DCR value: 38
  calculated EARtest value: 1.50
Erythrocyte AChE [3]; single oral 300 mg/kg BW
  calculated DCR value: 40
  calculated EARtest value: 1.58

## CCOP(=O)(OCC)OC(=CCl)c1ccc(Cl)cc1Cl [chlorfenvinphos]
Erythrocyte AChE [1]; 0.04 mg/kg BW (3 mg), first dose of repeated exposure study, male volunteers, ref APVMA. 2000 (original data of Hunter et al. 1972)
  Reported concomitant effects (signs and symptoms): No toxic signs was observed
Erythrocyte AChE [1]; [7]
  Erythrocyte AChE inhibition: 40%
  Reported concomitant effects (signs and symptoms): no toxic signs
  Reported erythrocyte AChE activity/inhibition: Decreased erythrocyte AChE
Erythrocyte AChE [1]; human, single oral 0.04 mg/kg BW, 0.04 mg/kg
  reported or expected adverse health outcome: negative
Erythrocyte AChE [1]; human, single oral 0.04 mg/kg BW, listed as Chlorfenvinphos, 0.04 mg/kg
  reported or expected adverse health outcome: No
Erythrocyte AChE [1]; human, single oral 1 mg/kg BW, listed as Chlorfenvinphos, 1 mg/kg
  reported or expected adverse health outcome: No
[2]
  Oral absorption rate constant: 0.81 h⁻¹
Erythrocyte AChE [3]; single oral 0.04 mg/kg BW
  calculated DCR value: 3.8 × 10^–3
  calculated EARtest value: 1.5 × 10^–4
Erythrocyte AChE [3]; single oral 0.18 mg/kg BW
  calculated EARtest value: 6.8 × 10^–4
Erythrocyte AChE [3]; single oral 1 mg/kg BW
  calculated DCR value: 0.098
  calculated EARtest value: 3.9 × 10^–3
